Measurements taken from patent publication EP4745137A1 (Gluetacs Therapeutics (Shanghai) Co., Ltd., priority 2023, dated 2025).

Legend:
[1] = molecular target: T1, WEE1 (Homo sapiens, UniProt P30291+Q96SW2); test: Western-blot assay of substrate protein degradation in hPBMCs, WEE1; format: cell-based; settings: 24 hours of compound treatment, compounds tested at 50 nM and 500 nM (concentration of the table not stated)
T1 construct: endogenous in cells; host or cells: hPBMCs (Milecell Biotechnologies)

[2] = molecular target: T2, IKZF1 (Homo sapiens, UniProt Q13422+Q96SW2); test: Western-blot assay of substrate protein degradation in hPBMCs, IKZF1; format: cell-based; settings: 24 hours of compound treatment, compounds tested at 50 nM and 500 nM (concentration of the table not stated)
T2 construct: endogenous in cells; host or cells: hPBMCs (Milecell Biotechnologies)

[3] = molecular target: T3, IKZF2 (Homo sapiens, UniProt Q96SW2+Q9UKS7); test: Western-blot assay of substrate protein degradation in hPBMCs, IKZF2; format: cell-based; settings: 24 hours of compound treatment, compounds tested at 50 nM and 500 nM (concentration of the table not stated)
T3 construct: endogenous in cells; host or cells: hPBMCs (Milecell Biotechnologies)

[4] = molecular target: T4, IKZF3 (Homo sapiens, UniProt Q96SW2+Q9UKT9); test: Western-blot assay of substrate protein degradation in hPBMCs, IKZF3; format: cell-based; settings: 24 hours of compound treatment, compounds tested at 50 nM and 500 nM (concentration of the table not stated)
T4 construct: endogenous in cells; host or cells: hPBMCs (Milecell Biotechnologies)

[5] = molecular target: T5, CK1α (Homo sapiens, UniProt P48729+Q96SW2); test: Western-blot assay of substrate protein degradation in hPBMCs, CK1α; format: cell-based; settings: 24 hours of compound treatment, compounds tested at 50 nM and 500 nM (concentration of the table not stated)
T5 construct: endogenous in cells; host or cells: hPBMCs (Milecell Biotechnologies)

[6] = molecular target: T6, GSPT1 (Homo sapiens, UniProt P15170+Q96SW2); test: Western-blot assay of substrate protein degradation in hPBMCs, GSPT1; format: cell-based; settings: 24 hours of compound treatment, compounds tested at 50 nM and 500 nM (concentration of the table not stated)
T6 construct: endogenous in cells; host or cells: hPBMCs (Milecell Biotechnologies)

[7] = molecular target: T7, human Cereblon WT GST-tagged protein (Homo sapiens, UniProt Q96SW2); test: CRBN-binding affinity by HTRF (CEREBLON BINDING kit); settings: HTRF inhibitory activity, CEREBLON BINDING kit; read-out: HTRF IC50
T7 construct: purchased CISBIO 64BDCRBNPEH
T7 sequence (Q96SW2 whole entry): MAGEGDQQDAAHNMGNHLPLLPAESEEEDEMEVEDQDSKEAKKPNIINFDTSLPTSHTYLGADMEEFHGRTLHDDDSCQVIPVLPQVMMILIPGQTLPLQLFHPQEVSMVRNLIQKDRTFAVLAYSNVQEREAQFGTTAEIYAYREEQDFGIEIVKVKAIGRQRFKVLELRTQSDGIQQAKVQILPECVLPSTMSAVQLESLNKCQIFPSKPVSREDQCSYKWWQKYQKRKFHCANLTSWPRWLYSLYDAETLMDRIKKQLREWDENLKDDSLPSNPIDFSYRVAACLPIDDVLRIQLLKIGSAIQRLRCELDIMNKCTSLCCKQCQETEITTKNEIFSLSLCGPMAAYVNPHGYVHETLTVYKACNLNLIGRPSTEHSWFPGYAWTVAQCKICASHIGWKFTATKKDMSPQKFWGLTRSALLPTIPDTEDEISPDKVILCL

T4 sequence (Q9UKT9 whole entry): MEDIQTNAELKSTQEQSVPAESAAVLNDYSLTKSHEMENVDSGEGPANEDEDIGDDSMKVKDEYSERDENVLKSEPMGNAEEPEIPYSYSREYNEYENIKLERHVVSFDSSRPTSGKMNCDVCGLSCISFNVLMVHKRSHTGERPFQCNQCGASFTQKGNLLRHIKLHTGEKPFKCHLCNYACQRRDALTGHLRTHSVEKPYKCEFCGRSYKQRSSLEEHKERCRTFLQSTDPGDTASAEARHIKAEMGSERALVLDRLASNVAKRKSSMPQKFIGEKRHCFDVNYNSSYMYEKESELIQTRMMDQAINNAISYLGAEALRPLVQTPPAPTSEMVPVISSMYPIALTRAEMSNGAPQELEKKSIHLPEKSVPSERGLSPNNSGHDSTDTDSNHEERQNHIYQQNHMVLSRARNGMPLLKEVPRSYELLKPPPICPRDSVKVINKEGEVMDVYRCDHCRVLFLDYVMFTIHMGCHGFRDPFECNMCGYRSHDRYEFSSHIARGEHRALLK
T4 sequence (Q96SW2 whole entry): as the sequence (Q96SW2 whole entry) above
T4 sequence (Q16531 whole entry partner): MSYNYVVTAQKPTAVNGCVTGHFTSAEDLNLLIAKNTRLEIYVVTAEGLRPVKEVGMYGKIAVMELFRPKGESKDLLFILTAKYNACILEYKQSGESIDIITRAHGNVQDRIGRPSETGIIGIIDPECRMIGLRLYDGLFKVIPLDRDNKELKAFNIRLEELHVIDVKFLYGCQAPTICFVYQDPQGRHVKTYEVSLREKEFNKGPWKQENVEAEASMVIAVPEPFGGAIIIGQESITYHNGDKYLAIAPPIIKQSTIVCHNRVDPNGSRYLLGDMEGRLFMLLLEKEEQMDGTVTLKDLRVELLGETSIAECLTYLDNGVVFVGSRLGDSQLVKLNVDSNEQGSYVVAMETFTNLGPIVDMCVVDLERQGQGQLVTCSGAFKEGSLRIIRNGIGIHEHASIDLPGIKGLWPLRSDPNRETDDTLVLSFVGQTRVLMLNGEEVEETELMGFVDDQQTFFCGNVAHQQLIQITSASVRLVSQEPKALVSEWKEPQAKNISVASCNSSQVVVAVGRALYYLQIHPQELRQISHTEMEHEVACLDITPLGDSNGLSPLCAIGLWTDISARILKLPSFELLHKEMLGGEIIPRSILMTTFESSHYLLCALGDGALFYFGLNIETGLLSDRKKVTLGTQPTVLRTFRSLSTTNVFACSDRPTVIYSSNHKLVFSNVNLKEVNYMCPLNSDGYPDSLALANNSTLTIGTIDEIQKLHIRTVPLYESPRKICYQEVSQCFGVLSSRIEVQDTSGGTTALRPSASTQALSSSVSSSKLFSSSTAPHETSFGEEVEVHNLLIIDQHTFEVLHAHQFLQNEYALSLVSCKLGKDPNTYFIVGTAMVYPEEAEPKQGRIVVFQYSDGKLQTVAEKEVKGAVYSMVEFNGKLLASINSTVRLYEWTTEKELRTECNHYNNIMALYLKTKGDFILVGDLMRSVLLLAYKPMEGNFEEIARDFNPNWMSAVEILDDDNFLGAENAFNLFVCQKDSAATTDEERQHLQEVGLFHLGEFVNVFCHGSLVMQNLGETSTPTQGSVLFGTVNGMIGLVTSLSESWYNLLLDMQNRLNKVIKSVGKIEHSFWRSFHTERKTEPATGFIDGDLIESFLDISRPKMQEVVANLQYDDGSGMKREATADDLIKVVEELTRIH
T2 sequence (Q13422 whole entry): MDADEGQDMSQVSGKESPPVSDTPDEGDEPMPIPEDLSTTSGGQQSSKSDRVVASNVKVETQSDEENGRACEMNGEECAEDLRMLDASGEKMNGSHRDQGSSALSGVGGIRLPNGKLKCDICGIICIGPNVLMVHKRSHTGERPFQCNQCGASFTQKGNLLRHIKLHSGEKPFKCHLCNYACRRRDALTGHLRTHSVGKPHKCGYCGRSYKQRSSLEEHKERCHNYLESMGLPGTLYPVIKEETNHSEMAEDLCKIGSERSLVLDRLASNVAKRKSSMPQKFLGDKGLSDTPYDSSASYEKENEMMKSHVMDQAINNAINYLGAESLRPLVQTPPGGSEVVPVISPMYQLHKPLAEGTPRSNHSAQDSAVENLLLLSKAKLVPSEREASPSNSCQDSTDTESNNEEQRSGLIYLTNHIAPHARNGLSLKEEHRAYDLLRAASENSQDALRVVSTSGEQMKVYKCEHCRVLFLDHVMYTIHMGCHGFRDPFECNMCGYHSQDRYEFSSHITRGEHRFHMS
T2 sequence (Q96SW2 whole entry): as the sequence (Q96SW2 whole entry) above
T2 sequence (Q16531 whole entry partner): as the sequence (Q16531 whole entry partner) above
T5 sequence (P48729 whole entry): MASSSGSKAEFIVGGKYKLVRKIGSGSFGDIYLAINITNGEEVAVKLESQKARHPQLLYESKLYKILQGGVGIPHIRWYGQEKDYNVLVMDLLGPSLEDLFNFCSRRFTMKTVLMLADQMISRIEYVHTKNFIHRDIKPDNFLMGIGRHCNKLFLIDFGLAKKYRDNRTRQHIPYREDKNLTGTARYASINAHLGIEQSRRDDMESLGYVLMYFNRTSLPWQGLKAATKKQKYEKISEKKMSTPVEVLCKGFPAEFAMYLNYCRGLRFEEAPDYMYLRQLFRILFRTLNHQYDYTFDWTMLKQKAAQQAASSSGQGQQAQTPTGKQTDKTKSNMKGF
T5 sequence (Q96SW2 whole entry): as the sequence (Q96SW2 whole entry) above
T5 sequence (Q16531 whole entry partner): as the sequence (Q16531 whole entry partner) above
T6 sequence (P15170 whole entry): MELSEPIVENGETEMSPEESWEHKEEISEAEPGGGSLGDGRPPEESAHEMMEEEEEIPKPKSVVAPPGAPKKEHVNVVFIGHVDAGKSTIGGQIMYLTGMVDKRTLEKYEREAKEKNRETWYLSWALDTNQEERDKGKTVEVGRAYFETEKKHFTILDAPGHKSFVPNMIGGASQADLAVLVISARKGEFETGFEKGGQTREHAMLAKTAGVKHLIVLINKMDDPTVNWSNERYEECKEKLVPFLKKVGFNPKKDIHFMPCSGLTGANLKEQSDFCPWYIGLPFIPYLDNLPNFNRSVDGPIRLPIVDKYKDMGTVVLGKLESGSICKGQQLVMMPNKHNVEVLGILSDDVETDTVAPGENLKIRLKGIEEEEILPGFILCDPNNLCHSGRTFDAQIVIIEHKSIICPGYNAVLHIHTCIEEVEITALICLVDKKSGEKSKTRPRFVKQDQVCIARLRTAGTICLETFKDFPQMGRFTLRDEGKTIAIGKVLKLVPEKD
T6 sequence (Q96SW2 whole entry): as the sequence (Q96SW2 whole entry) above
T6 sequence (Q16531 whole entry partner): as the sequence (Q16531 whole entry partner) above
T1 sequence (P30291 whole entry): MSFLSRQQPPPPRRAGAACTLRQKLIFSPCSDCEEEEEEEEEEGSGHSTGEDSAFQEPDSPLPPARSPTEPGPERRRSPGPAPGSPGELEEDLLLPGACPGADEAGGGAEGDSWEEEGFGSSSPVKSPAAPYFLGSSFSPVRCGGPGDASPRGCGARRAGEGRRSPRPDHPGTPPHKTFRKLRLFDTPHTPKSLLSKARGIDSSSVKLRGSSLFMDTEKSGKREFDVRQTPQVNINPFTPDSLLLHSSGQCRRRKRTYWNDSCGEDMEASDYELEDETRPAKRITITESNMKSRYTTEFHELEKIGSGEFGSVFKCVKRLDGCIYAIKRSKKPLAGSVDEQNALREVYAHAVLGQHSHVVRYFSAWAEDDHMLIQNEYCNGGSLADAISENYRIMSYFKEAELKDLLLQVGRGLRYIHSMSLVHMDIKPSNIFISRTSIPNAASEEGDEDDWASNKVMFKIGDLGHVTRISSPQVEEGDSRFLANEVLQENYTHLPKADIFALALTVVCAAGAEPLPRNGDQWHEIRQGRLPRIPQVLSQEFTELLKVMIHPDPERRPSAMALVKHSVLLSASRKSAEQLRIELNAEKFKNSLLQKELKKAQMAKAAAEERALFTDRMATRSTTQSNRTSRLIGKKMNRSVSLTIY
T1 sequence (Q96SW2 whole entry): as the sequence (Q96SW2 whole entry) above
T1 sequence (Q16531 whole entry partner): as the sequence (Q16531 whole entry partner) above

Compound	IC50 [7] [nM]	Weel substrate protein remaining % [1]	IKZF 1 substrate protein remaining % [2]	IKZF2 substrate protein remaining % [3]	IKZF3 substrate protein remaining % [4]	CK1a substrate protein remaining % [5]	GSPT1 substrate protein remaining % [6]
O=C1CCC(N2Cc3cc(CN4CCN(c5nc(Cl)nc6ccsc56)CC4)ccc3C2=O)C(=O)N1 (stereo not drawn) [GT-04682, 3-(5-((4-(2-chlorothieno[3,2-d]pyrimidin-4-yl)piperazin-1-yl)methyl)-1-oxoisoindolin-2-yl)piperidine-2,6-dione]	500 to 1000	B (80%< substrate protein remaining %≤ 100%)	B (80%< substrate protein remaining %≤ 100%)	B (80%< substrate protein remaining %≤ 100%)	B (80%< substrate protein remaining %≤ 100%)	A (0% ≤ substrate protein remaining % ≤ 80%)	A (0% ≤ substrate protein remaining % ≤ 80%)
O=C1CCC(N2Cc3cc(CN4CCN(c5nc(N6CCNCC6)c6sccc6n5)CC4)ccc3C2=O)C(=O)N1 (stereo not drawn) [GT-04698, 3-(1-oxo-5-((4-(4-(piperazin-1-yl)thieno[3,2-d]pyrimidin-2-yl)piperazin-1-yl)methyl)isoindolin-2-yl)piperidine-2,6-dione]	500 to 1000	A (0% ≤ substrate protein remaining % ≤ 80%)	A (0% ≤ substrate protein remaining % ≤ 80%)	A (0% ≤ substrate protein remaining % ≤ 80%)	A (0% ≤ substrate protein remaining % ≤ 80%)	B (80%< substrate protein remaining %≤ 100%)	A (0% ≤ substrate protein remaining % ≤ 80%)
O=C1CCC(N2Cc3cc(CN4CC(C5CCOc6cc(F)ccc65)C4)ccc3C2=O)C(=O)N1 (stereo not drawn) [GT-04700, 3-(5-((3-(7-fluorochroman-4-yl)azetidin-1-yl)methyl)-1-oxoisoindolin-2-yl)piperidine-2,6-dione]	500 to 1000	B (80%< substrate protein remaining %≤ 100%)	A (0% ≤ substrate protein remaining % ≤ 80%)	A (0% ≤ substrate protein remaining % ≤ 80%)	A (0% ≤ substrate protein remaining % ≤ 80%)	B (80%< substrate protein remaining %≤ 100%)	A (0% ≤ substrate protein remaining % ≤ 80%)

Second part, led by results:

IC50 [7] [nM]	Compound	Weel substrate protein remaining % [1]	IKZF 1 substrate protein remaining % [2]	IKZF2 substrate protein remaining % [3]	IKZF3 substrate protein remaining % [4]	CK1a substrate protein remaining % [5]	GSPT1 substrate protein remaining % [6]
< 500	Cc1nc(N2CCN(Cc3ccc4c(c3)CN(C3CCC(=O)NC3=O)C4=O)CC2)c2ccsc2n1 (stereo not drawn) [GT-04693, 3-(5-((4-(2-methylthieno[2,3-d]pyrimidin-4-yl)piperazin-1-yl)methyl)-1-oxoisoindolin-2-yl)piperidine-2,6-dione]	A (0% ≤ substrate protein remaining % ≤ 80%)	B (80%< substrate protein remaining %≤ 100%)	A (0% ≤ substrate protein remaining % ≤ 80%)	A (0% ≤ substrate protein remaining % ≤ 80%)	B (80%< substrate protein remaining %≤ 100%)	A (0% ≤ substrate protein remaining % ≤ 80%)
< 500	O=C1CCC(N2Cc3cc(CN4CCN(c5nc6c(c(N7CCOCC7)n5)SCC6)CC4)ccc3C2=O)C(=O)N1 (stereo not drawn) [GT-04694, 3-(5-((4-(4-morpholino-6,7-dihydrothieno[3,2-d]pyrimidin-2-yl)piperazin-1-yl)methyl)-1-oxoisoindolin-2-yl)piperidine-2,6-dione]	A (0% ≤ substrate protein remaining % ≤ 80%)	B (80%< substrate protein remaining %≤ 100%)	A (0% ≤ substrate protein remaining % ≤ 80%)	A (0% ≤ substrate protein remaining % ≤ 80%)	B (80%< substrate protein remaining %≤ 100%)	A (0% ≤ substrate protein remaining % ≤ 80%)
500 to 1000	O=C1CCC(N2Cc3cc(CN4CCC(c5ncnc6sccc56)CC4)ccc3C2=O)C(=O)N1 (stereo not drawn) [GT-04702, 3-(1-oxo-5-((4-(thieno[2,3-d]pyrimidin-4-yl)piperidin-1-yl)methyl)isoindolin-2-yl)piperidine-2,6-dione]	B (80%< substrate protein remaining %≤ 100%)	A (0% ≤ substrate protein remaining % ≤ 80%)	A (0% ≤ substrate protein remaining % ≤ 80%)	A (0% ≤ substrate protein remaining % ≤ 80%)	B (80%< substrate protein remaining %≤ 100%)	A (0% ≤ substrate protein remaining % ≤ 80%)
